Read-outs that look alike come from different tables or passages of the source.
Experiments:
[1] = test system: Acinetobacter baumannii 6383; test: MIC, solid dilution method; assay type: cell-based; settings: 6383
Procedure: (§1) CRE Acinetobacter baumannii 8476, 6383, a total of 2 strains; CRE Serratia marcescens 14541, a total of 1 strain; all collected in the Department of Infectious Diseases, West China Hospital, Chengdu, Sichuan Province, and kept in our laboratory.
(§2) The above-mentioned glycerol-preserved strains were taken out from the −80° C. refrigerator, streaked and inoculated on MHA plates, labeled, and cultured overnight in a 37° C. incubator.
(§3) The inoculum was prepared directly from bacterial suspension, and several recovered colonies were picked and directly prepared into a bacterial suspension with a turbidity of No. 0.5 McFarland units in normal saline, and a 10-fold dilution was made during inoculation.
(§4) 6 bottles of MHA culture medium 500 mL/bottle were prepared, and the pH was adjusted to 7.2-7.4, sterilized at 121° C. for 15 min, and the medium was placed in a 55° C. water bath to keep warm.
(§5) Sterile blank petri dishes were taken, and marked with each FL drug/concentration according to 2-fold dilution, and 10 concentrations of each drug starting from 8 μg/mL were tested.
(§6) […]; 20 mL was aspirated and added to a petri dish consistent with the mark, and then 20 mL of MHA culture medium was added to the rest of the drug-containing culture medium, mixed evenly, that is, the 2-fold diluted drug-containing culture medium; 20 mL was aspirated and added to the petri dish consistent with the mark, and then diluted to the 10th concentration and the […] respectively by repeating the above-mentioned steps, and then poured into the petri dish.
(§7) 4 bacterial control petri dishes without drug were prepared at the same time as a control.
(§8) The positioning needle and the inoculation needle were installed according to the order of placement of the colony on the inoculation plate. After inoculation, a bacterial solution circle was formed on the petri dish. After the bacterial solution was absorbed by the agar, the petri dish was placed in an incubator at 37° C. for overnight incubation (16-20 hours), and then taken out.
(§9) The minimum inhibitory concentrations of the compounds against the CRE and CSE strains were determined by the solid dilution method, and the results are shown in Tables 3 and 4.

[2] = test system: Acinetobacter baumannii 8476; test: MIC, solid dilution method; assay type: cell-based
Procedure: as §1, §2, §3, §4, §5, §6, §7, §8, §9

[3] = test system: Serratia marcescens 14541; test: MIC, solid dilution method; assay type: cell-based; settings: 14541
Procedure: as §1, §2, §3, §4, §5, §6, §7, §8, §9

Escherichia coli 14828 = test: MIC, solid dilution method; assay type: cell-based; settings: 14828
Procedure: as §2, §3, §4, §5, §6, §7, §8, §9

Escherichia coli 13897 = test: MIC, solid dilution method; assay type: cell-based
Procedure: as §2, §3, §4, §5, §6, §7, §8, §9

Klebsiella oxytoca 12391 = test: MIC, solid dilution method; assay type: cell-based
Procedure: as §2, §3, §4, §5, §6, §7, §8, §9

Klebsiella oxytoca 14151 = test: MIC, solid dilution method; assay type: cell-based; settings: 14151
Procedure: as §2, §3, §4, §5, §6, §7, §8, §9

E. coli 11256 = test: MIC, solid dilution method; assay type: cell-based; settings: Escherichia coli
Procedure: as §2, §3, §4, §5, §6, §7, §8, §9

Escherichia coli 11119 = test: MIC, solid dilution method; assay type: cell-based; settings: 11119
Procedure: as §2, §3, §4, §5, §6, §7, §8, §9

Klebsiella oxytoca 6777 = test: MIC, solid dilution method; assay type: cell-based; settings: 6777
Procedure: as §2, §3, §4, §5, §6, §7, §8, §9

Klebsiella oxytoca 14153 = test: MIC, solid dilution method; assay type: cell-based; settings: 14153
Procedure: as §2, §3, §4, §5, §6, §7, §8, §9

[4] = test system: Klebsiella pneumoniae 13249; test: MIC, solid dilution method; assay type: cell-based; settings: 13249
Procedure: (§10) (2) Clinical isolated strains: CRE Klebsiella pneumoniae 5846, 11544, 12559, 13249 and CSE Klebsiella pneumoniae 8733, a total of 5 strains;
as §2, §3, §4, §5, §6, §7, §8, §9

[5] = test system: Klebsiella pneumoniae 8733; test: MIC, solid dilution method; assay type: cell-based
Procedure: as §10, §2, §3, §4, §5, §6, §7, §8, §9

[6] = test system: Klebsiella pneumoniae 5846; test: MIC, solid dilution method; assay type: cell-based; settings: 5846
Procedure: as §10, §2, §3, §4, §5, §6, §7, §8, §9

[7] = test system: Klebsiella pneumoniae 12559; test: MIC, solid dilution method; assay type: cell-based
Procedure: as §10, §2, §3, §4, §5, §6, §7, §8, §9

[8] = test system: Klebsiella pneumoniae 11544; test: MIC, solid dilution method; assay type: cell-based; settings: 11544
Procedure: as §10, §2, §3, §4, §5, §6, §7, §8, §9

16 clinical CRE strains = test: MIC50, MIC90 and MIC range against 16 clinical CRE strains; assay type: cell-based
Procedure: as §2, §3, §4, §5, §6, §7, §8, §9

[9] = test system: Escherichia coli BAA-2452; test: MIC, solid dilution method; assay type: cell-based
Procedure: (§11) (1) Standard strains: Escherichia coli BAA-2452, Escherichia coli ATCC25922, Klebsiella pneumoniae BAA-1705; all purchased from ATCC.
as §2, §3, §4, §5, §6, §7, §8, §9

[10] = test system: Escherichia coli ATCC25922; test: MIC, solid dilution method; assay type: cell-based
Procedure: as §11, §2, §3, §4, §5, §6, §7, §8, §9

[11] = test system: Klebsiella pneumoniae BAA-1705; test: MIC, solid dilution method; assay type: cell-based; settings: BAA1705
Procedure: as §11, §2, §3, §4, §5, §6, §7, §8, §9

[12] = test system: Enterobacter cloacae 11090; test: MIC, solid dilution method; assay type: cell-based; settings: 11090
Procedure: as §2, §3, §5, §7, §8

[13] = test system: Enterobacter cloacae 11699; test: MIC, solid dilution method; assay type: cell-based; settings: 11699
Procedure: as §2, §3, §5, §7, §8

[14] = test system: Enterobacter cloacae 14653; test: MIC, solid dilution method; assay type: cell-based; settings: 14653
Procedure: as §2, §3, §5, §7, §8

E. ae 14186 = test: MIC, solid dilution method; assay type: cell-based, Enterobacter aerogenes; settings: Klebsiella aerogenes, 14186
Procedure: as §2, §3, §4, §5, §6, §7, §8, §9

[15] = test system: Citrobacter freundii 9484; test: MIC, solid dilution method; assay type: cell-based
Procedure: (§12) CRE Citrobacter freundii 9434, 9484 and CSE Citrobacter freundii 7646, a total of 3 strains;
as §2, §3, §4, §5, §6, §7, §8, §9

[16] = test system: Citrobacter freundii 9434; test: MIC, solid dilution method; assay type: cell-based; settings: 9434
Procedure: as §12, §2, §3, §4, §5, §6, §7, §8, §9

[17] = test system: Citrobacter freundii 7646; test: MIC, solid dilution method; assay type: cell-based
Procedure: as §12, §2, §3, §4, §5, §6, §7, §8, §9

[18] = test system: Enterobacter aerogenes 8193; test: MIC, solid dilution method; assay type: cell-based; settings: Klebsiella aerogenes
Procedure: CRE Enterobacter aerogenes 8193, a total of 1 strain;
as §2, §3, §4, §5, §6, §7, §8, §9

CC1(C)[C@H](NC(=O)/C(=N\O[C@@H](COc2ccc3c(c2)CN(C(=N)N(CCN)CCN)C3)C(=O)O)c2csc(N)n2)C(=O)N1OS(=O)(=O)O [Compound 45]
1 µg/mL: MIC (Klebsiella oxytoca 12391; 12391) | MIC [6] | MIC ([9]; BAA2452) | MIC [17]; 7646
2 µg/mL: MIC (Escherichia coli 14828) | MIC (Klebsiella oxytoca 14151) | MIC (Klebsiella oxytoca 6777) | MIC (Klebsiella oxytoca 14153) | MIC [11] | MIC [14] | MIC (E. ae 14186) | MIC [16]
8 µg/mL: MIC (Escherichia coli 11119)
4 µg/mL: MIC50 (16 clinical CRE strains) | MIC [12] | MIC [18]; 8193
> 8 µg/mL: MIC [1] | MIC [2]; 8476 | MIC [3] | MIC [4] | MIC [8] | MIC90 (16 clinical CRE strains)
0.25 µg/mL: MIC (E. coli 11256; 11256) | MIC [13] | MIC [15]; 9484
0.125 µg/mL: MIC ([10]; ATCC25922)
0.5 µg/mL: MIC (Escherichia coli 13897; 13897) | MIC [5]; 8733 | MIC [7]; 12559

C[C@H]1[C@H](NC(=O)/C(=N\OC(C)(C)C(=O)O)c2csc(N)n2)C(=O)N1S(=O)(=O)O [Aztreonam, aztreonam, reference compound]
1 µg/mL: MIC ([15]; C.f 9484, CRE clinical isolate, MHA agar, 37° C., 16-20 hours, read-out: MIC)
> 128 µg/mL: MIC [3] | MIC (Escherichia coli 14828) | MIC (Klebsiella oxytoca 14151) | MIC (Escherichia coli 11119) | MIC (Klebsiella oxytoca 14153) | MIC [4] | MIC [8] | MIC [11] | MIC (E. ae 14186) | MIC [16]
< 0.25 µg/mL: MIC (E. coli 11256; E. coli 11256, MHA agar, 37° C., 16-20 hours, read-out: MIC) | MIC ([10]; E. coli ATCC25922, standard strain, MHA agar, 37° C., 16-20 hours, read-out: MIC)
64 µg/mL: MIC ([2]; A.B 8476, CRE clinical isolate, MHA agar, 37° C., 16-20 hours, read-out: MIC) | MIC (Escherichia coli 13897; E. coli 13897, CRE clinical isolate, MHA agar, 37° C., 16-20 hours, read-out: MIC)
128 µg/mL: MIC [1] | MIC (Klebsiella oxytoca 6777) | MIC [6]
32 µg/mL: MIC (Klebsiella oxytoca 12391; K. ox 12391, CRE clinical isolate, MHA agar, 37° C., 16-20 hours, read-out: MIC) | MIC ([18]; E. ae 8193, CRE clinical isolate, MHA agar, 37° C., 16-20 hours, read-out: MIC)
16 µg/mL: MIC ([17]; C.f 7646, CSE clinical isolate, MHA agar, 37° C., 16-20 hours, read-out: MIC)
4 µg/mL: MIC ([7]; K.p 12559, CRE clinical isolate, MHA agar, 37° C., 16-20 hours, read-out: MIC)
8 µg/mL: MIC ([5]; K.p 8733, CSE clinical isolate, MHA agar, 37° C., 16-20 hours, read-out: MIC) | MIC ([9]; BAA2452, E. coli BAA-2452, standard strain, MHA agar, 37° C., 16-20 hours, read-out: MIC)

Source: US12491180B2, “Application of compound in treating pneumonia” (SHENZHEN OPTIMUM BIOLOGICAL TECHNOLOGY CO., LTD., priority 2019, dated 2025)
